Structures can show the parent of a compound that is named as a salt.
Biological target: human TYK2 (JH2domain-pseudokinase) (Homo sapiens (Human), UniProt P29597)
Experiment: TYK2 JH2 Domain Binding Assay (KINOMEscan competition binding)
Details: KINOMEscan; 11-point 3-fold dilution, top concentration 30,000 nM; Kd measurements in duplicate; read-out: TYK JH2 (Kd)
Experimental: Binding constants for compounds disclosed herein may be determined by the KINOMEscan® assay developed by DiscoveRx. KINOMEscan® is based on a competition binding assay that quantitatively measures the ability of a compound to compete with an immobilized, active-site directed ligand. The assay is performed by combining three components: DNA-tagged kinase; immobilized ligand; and a test compound. The ability of the test compound to compete with the immobilized ligand is measure via quantitative PCR of the DNA tag.
Binding constants for compounds disclosed herein against the JH2 domain are determined by the following protocol for a KINOMEscan® assay (DiscoveRx). A fusion protein of a partial length construct of human TYK2 (JH2domain-pseudokinase) (amino acids G556 to D888 based on reference sequence NP 003322.3) and the DNA binding domain of NFkB is expressed in transiently transfected HEK293 cells. From these HEK 293 cells, extracts are prepared in M-PER extraction buffer (Pierce) in the presence of Protease Inhibitor Cocktail Complete (Roche) and Phosphatase Inhibitor Cocktail Set II (Merck) per manufacturers' instructions. The TYK2 (JH2domain-pseudokinase) fusion protein is labeled with a chimeric double-stranded DNA tag containing the NFkB binding site (5′-GGGAATTCCC-3′) fused to an amplicon for qPCR readout, which is added directly to the expression extract (the final concentration of DNA-tag in the binding reaction is 0.1 nM).
Streptavidin-coated magnetic beads (Dynal M280) are treated with a biotinylated small molecule ligand for 30 minutes at room temperature to generate affinity resins for the binding assays. The liganded beads are blocked with excess biotin and washed with blocking buffer (SeaBlock (Pierce), 1% BSA, 0.05% Tween 20, 1 mM DTT) to remove unbound ligand and to reduce nonspecific binding.
Extracts are used directly in binding assays without any enzyme purification steps at a >10,000-fold overall stock dilution (final DNA tagged enzyme concentration<0.1 nM). Extracts are loaded with DNA-tag and diluted into the binding reaction in a two-step process. First extracts are diluted 1:100 in 1× binding buffer (PBS/0.05% Tween 20/10 mM DTT/0.1% BSA/[…] sonicated salmon sperm DNA) containing 10 nM DNA-tag. This dilution is allowed to equilibrate at room temperature for 15 minutes and then subsequently diluted 1:100 in 1× binding buffer. Test compounds are prepared as 111× stocks in 100% DMSO. Kds are determined using an 11-point 3-fold compound dilution series with three DMSO control points. All compounds for Kd measurements are distributed by acoustic transfer (non-contact dispensing) in 100% DMSO. The compounds are then diluted directly into the assays such that the final concentration of DMSO is 0.9%. All reactions performed in polypropylene 384-well plates. Each is a final volume of 0.02 mL. Assays are incubated with shaking for 1 hour at room temperature. Then the beads are pelleted and washed with wash buffer (lx PBS, 0.05% Tween 20) to remove displaced kinase and test compound. The washed beads are re-suspended in elution buffer (lx PBS, 0.05% Tween 20, 0.5 μM non-biotinylated affinity ligand) and incubated at room temperature with shaking for 30 minutes. The kinase concentration in the eluates is measured by qPCR. qPCR reactions are assembled by adding 2.5 μL of kinase eluate to 7.5 μL of qPCR master mix containing 0.15 μM amplicon primers and 0.15 μM amplicon probe. The qPCR protocol consists of a 10-minute hot start at 95° C., followed by 35 cycles of 95° C. for 15 seconds, 60° C. for 1 minute.
Test compounds are prepared as 111× stocks in 100% DMSO. Kds are determined using an 11-point 3-fold compound dilution series with three DMSO control points. All compounds for Kd measurements are distributed by acoustic transfer (non-contact dispensing) in 100% DMSO. The compounds are then diluted directly into the assays such that the final concentration of DMSO is 0.9%. […]

Sequence of human TYK2 (JH2domain-pseudokinase) (P29597 556-888): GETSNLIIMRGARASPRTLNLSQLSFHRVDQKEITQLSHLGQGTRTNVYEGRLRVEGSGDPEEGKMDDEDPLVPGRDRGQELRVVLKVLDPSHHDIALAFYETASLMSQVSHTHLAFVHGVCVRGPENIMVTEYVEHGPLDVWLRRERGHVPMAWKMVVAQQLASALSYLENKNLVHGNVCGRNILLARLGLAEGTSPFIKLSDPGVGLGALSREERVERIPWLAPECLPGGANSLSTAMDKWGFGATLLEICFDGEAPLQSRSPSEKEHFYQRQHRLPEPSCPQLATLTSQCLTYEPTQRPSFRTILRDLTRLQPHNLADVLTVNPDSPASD

Which Kd does the source give for `COc1ccccc1Nc1nc(N2CCCN(C(=O)OC(C)(C)C)CC2)ncc1C(N)=O` [Compound 41, Tert-Butyl 4-(5-carbamoyl-4-((2-methoxyphenyl)amino)pyrimidin-2-yl)-1,4-diazepane-1-carboxylate] here?
The Kd was 19 µM.

`COc1ccccc1Nc1nc(N2CCNCC2C)ncc1C(N)=O` (stereo not drawn) [Compound 42, 4-((2-methoxyphenyl)amino)-2-(2-methylpiperazin-1-yl)pyrimidine-5-carboxamide hydrochloride] was tested. Which Kd did it give?
The Kd was 3.3 µM.

How did the Kd turn out when `COc1ccccc1Nc1nc(N2CCN(C(=O)OC(C)(C)C)CC2C)ncc1C(N)=O` (stereo not drawn) [Compound 43, Tert-Butyl 4-(5-carbamoyl-4-((2-methoxyphenyl)amino)pyrimidin-2-yl)-3-methylpiperazine-1-carboxylate] was run?
The Kd was 7.5 µM.

How did the Kd turn out when `COc1ccccc1Nc1nc(N2CCC(C(=O)O)CC2)ncc1C(N)=O` [Compound 44, 1-(5-carbamoyl-4-((2-methoxyphenyl)amino)pyrimidin-2-yl)piperidine-4-carboxylic Acid] was run?
The Kd was 2.4 µM.

How did the Kd turn out when `CCOC(=O)C1CCN(c2ncc(C(N)=O)c(Nc3ccccc3OC)n2)CC1` [Compound 45, Ethyl 1-(5-carbamoyl-4-((2-methoxyphenyl)amino)pyrimidin-2-yl)piperidine-4-carboxylate] was run?
The Kd was 0.2 µM.

For `NC(=O)c1cnc(N2CCCNCC2)nc1Nc1ccc(C2CC2)nc1` [Compound 46, 4-((6-cyclopropylpyridin-3-yl)amino)-2-(1,4-diazepan-1-yl)pyrimidine-5-carboxamide Hydrochloride], which Kd is on record?
The Kd was 6.6 µM.

How did the Kd turn out when `CC(C)(C)OC(=O)N1CCCN(c2ncc(C(N)=O)c(Nc3ccc(C4CC4)nc3)n2)CC1` [Compound 47, Tert-Butyl 4-(S-carbamoyl-4-((6-cyclopropylpyridin-3-yl)amino)pyrimidin-2-yl)-1,4-diazepane-1-carboxylate] was run?
Its Kd is 6.7 µM.

`CNC(=O)C1CN(c2ncc(C(N)=O)c(Nc3cccc(-c4ncc(F)cn4)c3OC)n2)C1` [Compound 48, 4-((3-(5-fluoropyrimidin-2-yl)-2-methoxyphenyl)amino)-2-(3-(methylcarbamoyl)azetidin-1-yl)pyrimidine-5-carboxamide] was tested. Which Kd did it give?
The Kd was 0.0005 µM.

For `CNC(=O)c1cnc(N2CC(C(=O)NC)C2)nc1Nc1cccc(-c2ncc(F)cn2)c1OC` [Compound 49, 4-((3-(5-fluoropyrimidin-2-yl)-2-methoxyphenyl)amino)-N-methyl-2-(3-(methylcarbamoyl)azetidin-1-yl)pyrimidine-5-carboxamide], which Kd is on record?
The Kd was 0.0023 µM.

For `CNC(=O)C1CN(c2ncc(C(N)=O)c(Nc3ccc(C4CC4)nc3)n2)C1` [Compound 50, 4-((6-cyclopropylpyridin-3-yl)amino)-2-(3-(methylcarbamoyl)azetidin-1-yl)pyrimidine-5-carboxamide], which Kd is on record?
The Kd was 0.11 µM.

Which Kd does the source give for `CNC(=O)c1cnc(N2CC(C(=O)NC)C2)nc1Nc1ccc(C2CC2)nc1` [Compound 51, 4-((6-cyclopropylpyridin-3-yl)amino)-N-methyl-2-(3-(methylcarbamoyl)azetidin-1-yl)pyrimidine-5-carboxamide] here?
Its Kd is 1.5 µM.

For `CNC(=O)[C@H]1CCN(c2ncc(C(N)=O)c(Nc3cccc(-c4ncc(F)cn4)c3OC)n2)C1` [Compound 52, (S)-4-((3-(5-fluoropyrimidin-2-yl)-2-methoxyphenyl)amino)-2-(3-(methylcarbamoyl)pyrrolidin-1-yl)pyrimidine-5-carboxamide], which Kd is on record?
The Kd was 0.0016 µM.

Which Kd does the source give for `CNC(=O)[C@@H]1CCN(c2ncc(C(N)=O)c(Nc3cccc(-c4ncc(F)cn4)c3OC)n2)C1` [Compound 53, (R)-4-((3-(5-fluoropyrimidin-2-yl)-2-methoxyphenyl)amino)-2-(3-(methylcarbamoyl)pyrrolidin-1-yl)pyrimidine-5-carboxamide] here?
Its Kd is 0.00011 µM.

With `O=C(NO)c1cnc(N2CCCC2)nc1Nc1ccc(C2CC2)nc1` [Compound 54, 4-((6-cyclopropylpyridin-3-yl)amino)-N-hydroxy-2-(pyrrolidin-1-yl)pyrimidine-5-carboxamide] as the compound, how does the Kd read?
Its Kd is 0.16 µM.

With `CNC(=O)c1cnc(N2CCC(C(=O)NC)C2)nc1NC(=O)c1n[nH]c2c(OC)cccc12` (stereo not drawn) [Compound 56, 7-methoxy-N-(5-(methylcarbamoyl)-2-(3-(methylcarbamoyl)pyrrolidin-1-yl)pyrimidin-4-yl)-1H-indazole-3-carboxamide] as the compound, how does the Kd read?
The Kd was 11 µM.

With `COc1c(Nc2nc(N3CCNCC3C)ncc2C(N)=O)cccc1-c1ncc(F)cn1` (stereo not drawn) [Compound 57, 4-((3-(5-fluoropyrimidin-2-yl)-2-methoxyphenyl)amino)-2-(2-methylpiperazin-1-yl)pyrimidine-5-carboxamide] as the compound, how does the Kd read?
The Kd was 0.049 µM.

How did the Kd turn out when `COc1ccccc1Nc1nc(N2CCCN(C(C)=O)CC2)ncc1C(N)=O` [Compound 58, 2-(4-acetyl-1,4-diazepan-1-yl)-4-((2-methoxyphenyl)amino)pyrimidine-5-carboxamide] was run?
Its Kd is 1.8 µM.

How did the Kd turn out when `COc1ccccc1Nc1nc(N2CCN(C(C)=O)CC2C)ncc1C(N)=O` (stereo not drawn) [Compound 59, 2-(4-acetyl-2-methylpiperazin-1-yl)-4-((2-methoxyphenyl)amino)pyrimidine-5-carboxamide] was run?
Its Kd is 0.27 µM.

For `COc1c(Nc2nc(N3CCN(C(C)=O)CC3C)ncc2C(N)=O)cccc1-c1ncc(F)cn1` (stereo not drawn) [Compound 60, 2-(4-acetyl-2-methylpiperazin-1-yl)-4-((3-(5-fluoropyrimidin-2-yl)-2-methoxyphenyl)amino)pyrimidine-5-carboxamide], which Kd is on record?
The Kd was 0.002 µM.

`CNC(=O)c1cnc(N2CCN(C(C)=O)CC2C)nc1Nc1cccc(-c2ncc(F)cn2)c1OC` (stereo not drawn) [Compound 61, 2-(4-acetyl-2-methylpiperazin-1-yl)-4-((3-(5-fluoropyrimidin-2-yl)-2-methoxyphenyl)amino)-N-methylpyrimidine-5-carboxamide] was tested. Which Kd did it give?
Its Kd is 0.015 µM.

With `CC(=O)N1CCCN(c2ncc(C(N)=O)c(Nc3ccc(C4CC4)nc3)n2)CC1` [Compound 64, 2-(4-acetyl-1,4-diazepan-1-yl)-4-((6-cyclopropylpyridin-3-yl)amino)pyrimidine-5-carboxamide] as the compound, how does the Kd read?
Its Kd is 1.4 µM.

`CNC(=O)c1cnc(N2CCCN(C(=O)OC(C)(C)C)CC2)nc1Nc1ccccc1S(C)(=O)=O` [Compound 66, Tert-Butyl 4-(S-(methylcarbamoyl)-4-((2-(methylsulfonyl)phenyl)amino)pyrimidin-2-yl)-1,4-diazepane-1-carboxylate] was tested. Which Kd did it give?
Its Kd is 6.3 µM.

`CNC(=O)c1cnc(N2CCCNCC2)nc1Nc1ccccc1S(C)(=O)=O` [Compound 67, 2-(1,4-diazepan-1-yl)-N-methyl-4-((2-(methylsulfonyl)phenyl)amino)pyrimidine-5-carboxamide hydrochloride] was tested. Which Kd did it give?
Its Kd is 3.4 µM.

`CNC(=O)c1cnc(N2CCC(C(=O)O)CC2)nc1Nc1ccccc1S(C)(=O)=O` [Compound 68, 1-(5-(methylcarbamoyl)-4-((2-(methylsulfonyl)phenyl)amino)pyrimidin-2-yl)piperidine-4-carboxylic Acid] was tested. Which Kd did it give?
Its Kd is 0.16 µM.

For `CNC(=O)c1cnc(N2CCNCC2C)nc1Nc1ccccc1S(C)(=O)=O` (stereo not drawn) [Compound 69, N-methyl-2-(2-methylpiperazin-1-yl)-4-((2-(methylsulfonyl)phenyl)amino)pyrimidine-5-carboxamide Hydrochloride], which Kd is on record?
Its Kd is 1.8 µM.

`CNC(=O)c1cnc(N2CCN(C(C)=O)CC2C)nc1Nc1ccc(C2CC2)nc1` (stereo not drawn) [Compound 70, 2-(4-acetyl-2-methylpiperazin-1-yl)-4-((6-cyclopropylpyridin-3-yl)amino)-N-methylpyrimidine-5-carboxamide] was tested. Which Kd did it give?
Its Kd is 4 µM.

`COc1c(Nc2nc(N3CCCN(C(=O)OC(C)(C)C)CC3)ncc2C(N)=O)cccc1-c1ncc(F)cn1` [Compound 71, tert-butyl 4-(S-carbamoyl-4-((3-(5-fluoropyrimidin-2-yl)-2-methoxyphenyl)amino)pyrimidin-2-yl)-1,4-diazepane-1-carboxylate] was tested. Which Kd did it give?
The Kd was 0.47 µM.
